In patent US20030069194A1, “Inhibition of viral replication by targeting RNA-DNA complexes” (priority 2001, published 2003):
Several values for one entry are separate records, joined by “and”; a condition that tells them apart may be missing. Equal values may be shown once. Where a name gives a salt, the structure may show the parent alone.

Columns and labels:
[1] = system: 18C-18R duplex; assay: UV melting (thermal denaturation) and ΔTm analysis, 18C-18R duplex; type: binding, HIV-1; conditions: for Ka (ΔTm-derived association constant): extrapolated to 25° C.; for greater affinity for the 18C-18R duplex than for the 18C-18D duplex: 18C-18R versus 18C-18D; for enhancement of thermal stability of the duplex (ΔTm): 18C-18R, drug to duplex ratio (rdup) 3.0, FIG. 3a
Experimental: All UV absorbance experiments were conducted on an AVIV Model 14DS Spectrophotometer (Aviv Associates; Lakewood, N.J.) equipped with a thermoelectrically controlled cell holder. A quartz cell with a 1 cm pathlength was used for all the absorbance studies. Absorbance versus temperature profiles were measured at 274 nm with a 6 sec averaging time. The temperature was raised in 0.5° C. increments, and the samples were allowed to equilibrate for 1 min at each temperature setting. In these thermal denaturation studies, 18C-18R and 18C-18D solutions were […] in duplex and contained aminoglycoside at concentrations ranging from 0 to 12 μM. The duplex solutions were preheated for 5 min at 85° C. and then cooled to room temperature prior to addition of the drug. The buffer solutions for the UV melting experiments contained 10 mM PIPES (pH 6.0) and 5 mM MgCl2. For each optically detected transition, the melting temperature (Tm) was determined. Marky, L. A. & Breslauer, K. J. Calculating thermodynamic data for transitions of any molecularity from equilibrium melting curves, Biopolymers 26, 1601-1620 (1987).
The ΔTm method described below was used to derive aminoglycoside-duplex association constants (Ka). Measured aminoglycoside-induced changes in the thermal stability of the host duplexes (FIG. 3) were used to estimate the apparent drug-duplex association constants at Tm (KTm) from the following expression (Crothers, D. M. Statistical thermodynamics of nucleic acid melting transitions with coupled binding equilibria, Biopolymers 10, 2147-2160 (1971)): [formula]
In this expression, TmO and Tm are the melting temperatures of the drug-free and drug-bound duplex, respectively, n is the number of drug molecules bound per duplex, ΔHdup is the enthalpy change for the melting of the duplex in the absence of bound drug, and L is the free drug concentration at Tm (which can be estimated by one half the total drug concentration). Values of ΔHdup for the 18C-18R and 18C-18D duplexes were determined from the shapes of their UV melting profiles using the following relationship (Marky, L. A. & Breslauer, K. J. Calculating thermodynamic data for transitions of any molecularity from equilibrium melting curves, Biopolymers 26, 1601-1620 (1987)): [formula]
where α is the fraction of single strand. This calculation yielded ΔHdup values of 157.8 kcal/mol for the 18C-18R duplex and 130.3 kcal/mol for the 18C-18D duplex. For meaningful comparisons, the calculated apparent binding constants at Tm should be extrapolated to a common reference temperature using the standard relationship: [formula]
where ΔHb is the enthalpy of drug binding.

[2] = system: HIV-1; conditions: chronically infected cells; Zapp et al., Cell 74 (1993); cited from earlier work

Compound	Ka (ΔTm-derived association constant) ([1]; 18C-18R duplex)	greater affinity for the 18C-18R duplex than for the 18C-18D duplex [1]	enhancement of thermal stability of the duplex (ΔTm) [1]	inhibition of HIV-1 production [2]	difference in affinity, neomycin greater than paromomycin ([1]; 18C-18R duplex)	greater affinity for the 18C-18R duplex than for the 18C-18D duplex ([1]; trisulfate trihydrate)
NC[C@@H]1O[C@H](O[C@H]2[C@@H](O)[C@H](O[C@@H]3[C@@H](O)[C@H](N)C[C@H](N)[C@H]3O[C@H]3O[C@H](CO)[C@@H](O)[C@H](O)[C@H]3N)O[C@@H]2CO)[C@H](N)[C@@H](O)[C@@H]1O [paromomycin, paromomycin sulfate]	(4.3 ± 1.6) × 10^5 M^−1	2 fold	1.4 °C	–	–	–
Neomycin trisulfate trihydrate	(8.6 ± 1.5) × 10^6 M^−1	–	4.8 °C	inhibit HIV-1 production in chronically infected cells	20 fold	≈ 5 fold and 5 fold
